# Reference: publication PMC11672400, “Synthesis, Spectroscopic Characterization, Structural Analysis, and Evaluation of Anti-Tumor, Antimicrobial, and Antibiofilm Activities of Halogenoaminopyrazoles Derivatives” (Antibiotics, 2024)
# Read-outs that look alike come from different tables or passages of the source.
# Columns and labels:
# [1] = MTT cell viability / cytotoxicity on normal fibroblasts; format: cell-based, mouse; conditions: mouse, NCTC clone 929 (L929) mouse fibroblast cells
# Excerpt: (§1) Merck chemicals were utilized.
# (§2) Untreated cells were used as control, considered 100% viable cells.
# [2] = system: NCTC (clone 929) mouse fibroblast cells; assay: as above; format: cell-based; conditions: Mus musculus, NCTC clone 929; NCTC normal fibroblasts, MTT, 48 h
# Excerpt: as §1, §2
# [3] = system: Enterococcus faecalis ATCC29212; assay: Qualitative evaluation of antimicrobial activity (inhibition zone, spot on agar); format: cell-based; set-up: key: (+) inhibited bacterial growth; (-) did not inhibit bacterial growth; conditions: 0.06 g/2 mL DMSO, 5 µL spot
# Description: (§3) For testing the antimicrobial/antibiofilm activity, the concentration of the studied compounds was identical to 0.06 g/2 mL DMSO. 0.5 Standard McFarland suspension was used, which was inoculated onto Mueller Hinton agar plates, (Remel, Lenexa, KS, USA), 5 µL of each compound was spotted and incubated overnight at 37 °C. Antimicrobial activity was observed as zones of inhibition formed around the spot.
# [4] = system: Escherichia coli ATCC25922; assay: as above; format: cell-based; set-up: key: (+) inhibited bacterial growth; (-) did not inhibit bacterial growth; conditions: 0.06 g/2 mL DMSO, 5 µL spot
# Description: as §3
# [5] = system: Pseudomonas aeruginosa ATCC27853; assay: as above; format: cell-based; set-up: key: (+) inhibited bacterial growth; (-) did not inhibit bacterial growth; conditions: 0.06 g/2 mL DMSO, 5 µL spot
# Description: as §3
# [6] = system: Staphylococcus aureus ATCC25923; assay: as above; format: cell-based; set-up: key: (+) inhibited bacterial growth; (-) did not inhibit bacterial growth; conditions: 0.06 g/2 mL DMSO, 5 µL spot
# Description: as §3
# [7] = system: Enterococcus faecalis ATCC29212; assay: MIC by serial microdilution in liquid medium; format: cell-based; conditions: 24 h, 37 °C
# Procedure, shortened: (§4)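 Twofold serial dilutions from a DMSO stock (10 mg/mL) in Tryptone Soy Broth, inoculated with 10 µL of a 10^6 CFU/mL suspension, incubated 24 h at 37 °C. Growth judged visually and by OD 620 nm; MIC (µg/mL) is the lowest concentration without growth, run in triplicate.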
# [8] = system: Escherichia coli ATCC25922; assay: MIC by serial microdilution in liquid medium; format: cell-based; conditions: 24 h, 37 °C
# Procedure, shortened: as §4
# [9] = system: Pseudomonas aeruginosa ATCC27853; assay: MIC by serial microdilution in liquid medium; format: cell-based; conditions: 24 h, 37 °C
# Procedure, shortened: as §4
# [10] = system: Staphylococcus aureus ATCC25923; assay: MIC by serial microdilution in liquid medium; format: cell-based; conditions: 24 h, 37 °C
# Procedure, shortened: as §4
# [11] = system: Pseudomonas aeruginosa ATCC27853; assay: Antibiofilm assay (crystal violet), MBIC; format: cell-based; conditions: 37 °C
# Procedure, shortened: (§5)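 Biofilms grown in nutrient broth with test substances for 24 h at 37 °C. After rinsing with sterile physiological water, attached cells were fixed 5 min with methanol, then crystal violet stained.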
# [12] = system: Staphylococcus aureus ATCC25923; assay: Antibiofilm assay (crystal violet), MBIC; format: cell-based; conditions: 24 h, 37 °C
# Procedure, shortened: as §5
# [13] = system: HEp-2 epithelial tumor cells; assay: MTT cell viability / anti-tumor activity; conditions: Homo sapiens; for viability at 3.1 µg/mL / viability at 6.25 µg/mL / viability at 12.5 µg/mL / viability at 25 µg/mL / viability at 50 µg/mL: read-out: Cell viability on Hep2 cells (%)
# Description: The cytotoxicity of the halogenoaminopyrazole derivatives 4a–f and 5a–e was tested on L929 mouse fibroblast cells, and their anti-tumor activity was evaluated on the human carcinoma epithelial cell line HEp-2. The experiments were performed in a concentration range of 3.1–50 μg/mL.
# The MTT test was used, 3-(4,5-dimethylthiazol-2-yl)-2,5-diphenyl tetrazolium bromide), which is reduced to insoluble purple-blue formazan crystals precipitated by living cells. Cell viability assessed using the MTT assay reflects the activity of mitochondrial enzymes in treated cells compared to the control culture of untreated cells.
# To assess the biocompatibility of the substances, a stable mouse fibroblast cell line, NCTC (clone 929), was grown in minimal essential medium (MEM) with 10% fetal bovine serum (FBS) and 2 mM L-glutamine, along with 100 U/mL penicillin, 100 µg/mL streptomycin, and 500 µg/mL neomycin. The concentration of the compounds used was 0.06 g/2 mL DMSO.
# In cytotoxicity experiments, compound solutions were utilized at concentrations of 3.1 μg/mL, 6.25 μg/mL, 12.5 μg/mL, 25 μg/mL, and 50 μg/mL. The NCTC cell suspension was placed into 96-well culture plates with a concentration of 4 × 10^4 cells/mL and incubated at 37 °C for 24 h in a 5% CO2 humidified atmosphere. The compounds under study were placed in sets of three at varying concentrations ranging from 3.1 μg/mL to 50 μg/mL in every well, and the plates were then kept under standard conditions for 48 h. Cell viability was determined through the utilization of the MTT assay. Next, the MTT solution was removed, then isopropanol was added to solubilize the formazan crystals. The colored solution was then measured for absorbance at 570 nm using a Berthold Technologies, LB 940 microplate reader (Bad Wildbad, Germany). The outcomes were determined based on Formula (1) while considering that the recorded optical density is directly related to the number of viable cells in the cell culture being examined [35, 36]. % cell viability = (OD sample/OD control) × 100%(1)
# For each tested compound, a graph representing percentage cell viability versus concentrations (in the range 3.1–50 µg/mL) was obtained. Then, the IC50 value was calculated by using ED50 plus V1.0 software.
compound,measurement,setting,value
"Cc1nn(CNc2ccc(Cl)cc2)c(C)c1[N+](=O)[O-] [4b, N-[(3,5-dimetyl-4-nitro-1H-pyrazol-1-yl)-methyl]-4-chloroaniline]","viability at 24 h, 3.1 µg/mL","[1]; 3.1 µg/mL, 24h",100 ± 1.63%
same,"viability at 48 h, 3.1 µg/mL","[1]; 3.1 µg/mL, 48h",95.08 ± 0.82%
same,"viability at 24 h, 6.25 µg/mL","[1]; 6.25 µg/mL, 24h",101 ± 3.31%
same,"viability at 48 h, 6.25 µg/mL","[1]; 6.25 µg/mL, 48h",93 ± 1.35%
same,"viability at 24 h, 12.5 µg/mL","[1]; 12.5 µg/mL, 24h",98.6 ± 2.62%
same,"viability at 48 h, 12.5 µg/mL","[1]; 12.5 µg/mL, 48h",89.7 ± 3.15%
same,"viability at 24 h, 25 µg/mL","[1]; 25 µg/mL, 24h",96.3 ± 2.22%
same,"viability at 48 h, 25 µg/mL","[1]; 25 µg/mL, 48h",61.9 ± 1.38%
same,"viability at 24 h, 50 µg/mL","[1]; 50 µg/mL, 24h",64.9 ± 0.94%
same,"viability at 48 h, 50 µg/mL","[1]; 50 µg/mL, 48h",31.6 ± 1.27%
same,IC50,[2],36.1 ± 1.23 µg/mL
same,"Qualitative antimicrobial activity, Enterococcus faecalis ATCC29212",[3],+
same,"Qualitative antimicrobial activity, Escherichia coli ATCC25922",[4],+
same,"Qualitative antimicrobial activity, Pseudomonas aeruginosa ATCC27853",[5],+
same,"Qualitative antimicrobial activity, Staphylococcus aureus ATCC25923",[6],+
same,"Minimum inhibitory concentration, Enterococcus faecalis ATCC29212",[7],460 ± 0.02 µg/mL
same,MIC,"[7]; Enterococcus faecalis, ATCC29212, read-out: Minimum inhibitory concentration, Enterococcus faecalis ATCC29212",460 µg/mL
same,"Minimum inhibitory concentration, Escherichia coli ATCC25922",[8],460 ± 0.05 µg/mL
same,MIC,"[8]; Escherichia coli, ATCC25922, read-out: Minimum inhibitory concentration, Escherichia coli ATCC25922",460 µg/mL
same,"Minimum inhibitory concentration, Pseudomonas aeruginosa ATCC27853",[9],460 ± 0.01 µg/mL
same,MIC,"[9]; Pseudomonas aeruginosa, ATCC27853, read-out: Minimum inhibitory concentration, Pseudomonas aeruginosa ATCC27853",460 µg/mL
same,"Minimum inhibitory concentration, Staphylococcus aureus ATCC25923",[10],460 ± 0.02 µg/mL
same,MIC,"[10]; Staphylococcus aureus, ATCC25923, read-out: Minimum inhibitory concentration, Staphylococcus aureus ATCC25923",460 µg/mL
same,"Minimum biofilm inhibition concentration (MBIC), Pseudomonas aeruginosa ATCC27853",[11]; 24 h,460 ± 0.02 µg/mL
same,minimal effective concentration,"[11]; Pseudomonas aeruginosa, ATCC27853, 24 h, read-out: Minimum biofilm inhibition concentration (MBIC), Pseudomonas aeruginosa ATCC27853",460 µg/mL
same,"Minimum biofilm inhibition concentration (MBIC), Staphylococcus aureus ATCC25923",[12],460 ± 0.01 µg/mL
same,minimal effective concentration,"[12]; Staphylococcus aureus, ATCC25923, read-out: Minimum biofilm inhibition concentration (MBIC), Staphylococcus aureus ATCC25923",460 µg/mL
same,melting point,,99 to 100 °C
same,viability at 3.1 µg/mL,"[13]; HEp-2, 24 h",116 ± 2.48%
same,viability at 6.25 µg/mL,"[13]; HEp-2, 24 h",105 ± 2.91%
same,viability at 12.5 µg/mL,"[13]; HEp-2, 24 h",100 ± 2.49%
same,viability at 25 µg/mL,"[13]; HEp-2, 24 h",88.8 ± 1.65%
same,viability at 50 µg/mL,"[13]; HEp-2, 24 h",65.6 ± 2.78%
same,viability at 3.1 µg/mL,"[13]; HEp-2, 48 h",112.6 ± 1.03%
same,viability at 6.25 µg/mL,"[13]; HEp-2, 48 h",104 ± 1.08%
same,viability at 12.5 µg/mL,"[13]; HEp-2, 48 h",98 ± 1.42%
same,viability at 25 µg/mL,"[13]; HEp-2, 48 h",79.5 ± 1.49%
same,viability at 50 µg/mL,"[13]; HEp-2, 48 h",46.8 ± 3.35%
same,IC50,"[13]; HEp-2, 48 h, read-out: IC50 µg/mL on HEp-2 Cells 48 h, HEp-2 epithelial tumor cells, MTT, 48 h",47.3 ± 3.38 µg/mL
